# From US20020042079A1, “METHODS AND AGENTS FOR MEASURING AND CONTROLLING MULTIDRUG RESISTANCE” (priority 1994, published 2002)
# “Also recorded” adds a separate entry of the source.
# Legend:
# MCF-7/ADR cells [1] = assay: Cell viability assay of Adriamycin sensitivity (Hoechst 33258 DNA content); details: for effect on sensitivity of drug-resistant cells to Adriamycin: MCF-7/ADR (MCF-7adr) cells, agent co-incubated with adriamycin for 6 hours
# Protocol: After 6 hours, the media was removed, the cells rinsed, and then fed with fresh media not containing drugs. […] Media was aspirated and the wells rinsed with Hanks Balanced Salt Solution (HBSS, phenol red free). The cells were sonicated in hypotonic media (0.1×HBSS) for 30 seconds. […] Calf thymus DNA was used for calibration.
# Cell viability assays: The media was removed 60 hr. after plating the cells and replaced with fresh media supplemented with various concentrations of adriamycin (Calbiochem, CA) and monensin (solubilized in DMF 0.1%) (Sigma, St. Louis). After 6 hr the media was removed, the cells rinsed, and then fed with fresh media not containing drugs. […] Media was aspirated and the wells rinsed with Hanks Balanced Salt Solution (HBSS, phenol red free). The cells were sonicated in hypotonic media (0.1×HBSS) for 30 seconds. […] Calf thymus DNA was used for calibration.
# Cell Viability Assays: Cell viability was assayed by plating cells at ˜1000 cells/well in 24 well plates (Falcon) in DME. […] The cells were fed daily for three days and then cell viability was quantified with two independent techniques: an assay of total DNA and an assay of volume of viable cells. […] Calf thymus DNA was used for calibration.
# After three days cell viability was assayed.
# [2] = lumenal pH of 6 and an external pH of 8; cited from earlier work
# MCF-7/ADR cells [3] = assay: Subcellular distribution of Adriamycin fluorescence (confocal microscopy); assay type: cell-based, human; details: for Adriamycin distribution after addition of agent: MCF-7/ADR, Monensin 5 μM, Bafilomycin A1 500 nM, concanomycin 100 nM, Tamoxifen 10 μM (50 μM in Example 3), verapamil 10 μM, cyclosporin 5 μM
# Protocol: Adriamycin can be excited between 350 nm-550 nm and emits between 400 nm-700 nm.
# Labeling of Cells with Adriamycin: Cells were loaded with Adriamycin (10 μM) added to the perfusion medium. […] For epi-fluorescence, the cells were excited with 450-490 nm filter and emission was monitored with a 510 nm longpass filter.
# [4] = test system: isolated microsomes of MCF-7/ADR cells; assay: In vitro acidification of total microsomal preparation (acridine orange quenching); details: for rate of dissipation of the pre-existing pH gradient: added 10 minutes after ATP, Bafilomycin A1 100 nM, compared with tamoxifen
# Protocol: Acidification of Cellular Microsomes: The acidification of cellular microsomes was assayed spectrophotometrically. Two different approaches were used for assaying acidification: Acidification of the total microsomal preparation using quenching of acridine orange and acidification of the recycling endosomes by monitoring the fluorescence from a microsomal preparation from cells that had previously endocytosed FITC-transferrin.
# The homogenate was centrifuged twice for 10 minutes at 3000 g to remove unbroken cells and nuclei. The supernatant was layered over 20 ml of 0.5 M sucrose (20 mM HERES (pH 7.4), 1 mM DTT, 1 mM EDTA, 1×protease inhibitor mix) and 1 ml of 2 M sucrose and centrifuged for one hour at 100,000 g (Beckman Ti60 Rotor). Microsomes are collected at the 0.5 M and 2 M interface.
# Acidic vesicles accumulate acridine orange to high concentrations resulting in the self quenching of the dye. This accumulation causes depletion of the acridine orange from the extra-vesicular space, and a decrease of the overall fluorescence of the sample. […] The sample was allowed to equilibrate by stirring for 30 minutes at 25° C. After 5 minutes of recording to establish baseline, 1 mM Tris-ATP was added to begin acidification (100 mM stock, titrated to pH 7.4 with 1 M Tris-base before use).
# MCF-7/ADR cells [5] = assay: Acridine orange labeling of acidic compartments (confocal microscopy); assay type: cell-based, human; details: for red-orange acridine orange fluorescence of cytoplasmic organelles after addition of agent: MCF-7/ADR, 30 minutes, Monensin 5 μM, Bafilomycin A1 500 nM, concanomycin 100 nM, Tamoxifen 5 or 10 μM, verapamil 10 μM, cyclosporin A 10 μM
# Protocol: Confocal fluorescence imaging of intracellular pH and acidic compartments: Acridine orange (2 μg/ml media; 4 mg/ml stock in water) was added directly to the chambers and the cells were incubated with the dye at 37° C. for 30 minutes. Cells in the presence of acridine orange were then examined at room temperature with an Insight Bilateral Laser Scanning Confocal Microscope (Meridian Instruments, Okemos, Mich.). […] Optical sections of the fluorescent sample were recorded at 0.5 micron intervals. […] The acetoxymethylester derivative of SNAFL-calcein (15 μg/ml) (Molecular Probes, Eugene, Oreg.) (a radiometric fluorescent probe for pH) was added to both MCF-7 and MCF-7adr cells. The ester linked fluorescent probe enters the cell passively where the esters are hydrolyzed by esterases located in the cytoplasm and intracellular vesicles. The SNAFL-calcein is then ionically trapped within the cytoplasm and vesicular compartments. […] These images were then compared to standard curves that were obtained in the following manner. […] Cells treated with monensin were exposed to the drug (10 μg/ml of media) for 30 minutes at 37° C. prior to labeling with SNAFL-calcein as described above. All cells were examined at room temperature.
# The green and red emissions were collected using two photomultiplier tubes. […] Green emission was next passed through a 530 nm/30 nm bandpass filter and collected by the on-axis photomultiplier tube. Red emission was passed through a 610 nm longpass filter and collected by the 90° side photomultiplier tube.
# Optical sections of the fluorescent samples were recorded at 0.5 micron intervals with a 60×oil immersion objective.
# MCF-7/ADR cells [6] = assay: Organelle-specific pH measurements with targeted SNARF and FITC probes in living cells; assay type: cell-based, human; details: MCF-7/ADR cells; SNARF 70 kD dextran; Tamoxifen at 10 μM
# Protocol: Organelle-specific pH measurements: The pH was measured in selective cellular compartments by targeting ratiometric pH probes to specific organelles. […] Using a Nikon epifluorescence microscope with a intensified CCD camera, the pH probe FITC was excited alternately at 450 nm and 490 nm and emission recorded with a 520/10 bandpass filter. […] In short, to calibrate the pH for the endosomal system, the chamber was perfused with 150 mM sodium buffers at pH of 5, 6 or 7 containing of monensin (20 μM) and nigericin (10 μM) for 5 minutes before recording the fluorescence. For the pH calibrations of cytosol and nucleoplasm, the cells were incubated in 140 mM potassium buffers at pH 6.0, 6.5, 7.0 and 7.5 containing nigericin (20 μM).
# After endocytosis, the transferrin is transported through the endosomes and then recycled back to the surface without passage through the lysosomes.
# pH in the lysosomes: The pH in the lysosomes was assayed both with light and electron microscopy. […] The pH was calibrated as described above. […] The cells were incubated one hour at room temperature, washed with several changes of PBS pH 7.4 containing 50 mM NH4Cl. […] The cells were embedded in LR White in gelatin capsules and baked at 60° C. for 24 hours in a vacuum oven, sectioned and incubated overnight at 4° C. with anti-DNP antibodies in 4% FBS, washed and incubated in gold (10 nm) labeled secondary antibodies for 2 hours. They were then stained and visualized under the electron microscope.
# Cells were plated on polystyrene plates at 50% confluency. Twenty-four to thirty-six hours later, the medium was aspirated and the cells were covered with 50 μl of DME with SNARF-dextran (10 mg/ml). The cells were quickly scraped off the polystyrene and placed in pre-chilled tubes containing 1 ml DME without serum. The cells were harvested (100 g for 5 minutes), washed twice with pre-chilled DME, and plated on Lab-Tek chambers in DME with serum. The cells were allowed to recover for 24 hours prior to examination on a confocal microscope. The pH was calibrated from SNARF fluorescence as described above.
# pH in the nucleus: The nucleoplasmic pH was probed by loading the cytosol with SNARF conjugated to a 10 kD dextran. This dextran is too large to cross cellular membranes, but can enter the nucleoplasm by diffusion across the nuclear pores. Confocal fluorescence microscopy was used to prepare optical sections through the cell allowing the fluorescence intensity of the nucleoplasm and cytoplasm to be quantified. The 10 kD SNARF-dextran was loaded into the cytosol and imaged using the same techniques for the 70 kD SNARF-dextrans (see above).
Compound,rate of dissipation of the pre-existing pH gradient [4],red-orange acridine orange fluorescence of cytoplasmic organelles after addition of agent (MCF-7/ADR cells [5]),Adriamycin distribution after addition of agent (MCF-7/ADR cells [3]),effect on sensitivity of drug-resistant cells to Adriamycin (MCF-7/ADR cells [1]),also measured
COc1cccc2c1C(=O)c1c(O)c3c(c(O)c1C2=O)C[C@@](O)(C(=O)CO)C[C@@H]3O[C@H]1C[C@H](N)[C@H](O)[C@H](C)O1 [Adriamycin],,,,,"cell death (MCF-7/ADR cells [1]; 1 μM Adriamycin, absence of Tamoxifen, 6 hours exposure, assayed after three days): less than 20%; accumulation in a liposome [2]: approximately 100 fold; time for Adriamycin accumulation to reach a steady-state distribution (MCF-7/ADR cells [3]; MCF-7 and MCF-7/ADR cells): approximately 60 minutes"
CO/C1=C\C(C)=C\[C@@H](C)[C@@H](O)[C@@H](C)C/C(C)=C/C=C/[C@H](OC)[C@@H]([C@@H](C)[C@@H](O)[C@H](C)[C@@]2(O)C[C@@H](O)[C@H](C)[C@@H](C(C)C)O2)OC1=O [Bafilomycin A1],dissipated the pH gradient at a much slower rate,the punctate red labeling of acidic organelles was lost; also recorded: disappearance of punctate red-orange cytoplasmic fluorescence,redistributed Adriamycin to the nucleoplasm; also recorded: substantially decreased in all cytoplasmic compartments and increased in the nucleoplasm,,"acidification of pre-treated microsomes ([4]; Tamoxifen 8 μM, Bafilomycin A1 10 nM, monensin concentration not given): blocked acidification; acidification blocked ([4]; at one tenth of 100 nM): 95%"
C[C@H]1CCC/C=C/[C@@H]2C[C@H](O)C[C@H]2[C@H](O)/C=C/C(=O)O1 [Brefeldin A],,,,did not affect drug sensitivity,
CO[C@@H]1C[C@@H](C[C@H]2CC[C@H](C)[C@H]([C@@H](C)C(=O)O)O2)O[C@]2(O[C@](C)([C@H]3CC[C@@](C)([C@@H]4O[C@@H]([C@H]5O[C@@](O)(CO)[C@H](C)C[C@@H]5C)C[C@@H]4C)O3)C[C@H]2C)[C@@H]1C [Nigericin],significantly faster than tamoxifen,,,functioned in a similar manner,"acridine orange staining of acidic vesicles after treatment (MCF-7/ADR cells [5]; MCF-7adr (Examples 2, 3), nigericin 7.5 μM, tamoxifen 50 μM): eliminated fluorescent staining of both cytoplasmic vesicles and vesicles within the pericentriolar region; also recorded: immediate loss of orange/red fluorescence"
N=C(N)NC(=O)c1nc(Cl)c(N)nc1N [amiloride],,,,functioned in a similar manner,
COc1ccc(CCN(C)CCCC(C#N)(c2ccc(OC)c(OC)c2)C(C)C)cc1OC (stereo not shown) [verapamil],,loss of the red-orange cytoplasmic fluorescence,shifted Adriamycin from punctate cytoplasmic organelles to a diffuse cytoplasmic and nucleoplasmic distribution,,"shift of cytosolic pH, more alkaline (MCF-7/ADR cells [6]): no measurable effect on cytosolic pH"
